Assays:
BCR-FMS BaF3 cells = molecular target: T1, BCR-FMS BaF3 cells (Homo sapiens, UniProt P07333); assay: BaF3 BCR-FMS cell proliferation assay (ATPlite); type: cell-based; details: read-out: Inhibition of Cell Proliferation IC50, BCR/BaF3 Fms
T1 construct: fused on or other part: P11274 (Breakpoint cluster region protein)
T1 sequence (P07333 582-910): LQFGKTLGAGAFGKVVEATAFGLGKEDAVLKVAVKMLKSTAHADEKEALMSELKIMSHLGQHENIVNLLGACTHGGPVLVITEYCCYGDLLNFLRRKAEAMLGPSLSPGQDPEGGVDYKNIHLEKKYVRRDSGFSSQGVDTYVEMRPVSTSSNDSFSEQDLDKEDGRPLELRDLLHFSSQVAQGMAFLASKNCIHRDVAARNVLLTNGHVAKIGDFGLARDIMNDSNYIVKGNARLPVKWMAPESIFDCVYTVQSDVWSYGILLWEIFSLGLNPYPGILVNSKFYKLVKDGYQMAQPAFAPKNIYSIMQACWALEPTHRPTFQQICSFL
Method: (§1) Compounds are assessed in a variety of cell based assays. For example BaF3 cells engineered with any of BCR-FMS, BCR-KIT, BCR-FLT3, BCR-NTRK1, BCR-NTRK2, and BCR-NTRK3, are used in cell proliferation assays to assess inhibitory activity of Fms, Kit, Flt-3, TrkA, TrkB, and TrkC, respectively. An MV-4-11 (leukemia) cell proliferation assay is used to assess inhibitory activity in Flt-3, and SKNSH (human neuroblastoma) cell proliferation assay is used to assess efficacy of Fms/Trk inhibitors. Additional cells may be assayed similarly to assess the efficacy of Fms/Trk inhibitors, such as MiaPaCa (human pancreatic cancer) and Capan-1 (human pancreatic carcinoma) cells. Reagent and assay conditions are as follows: • BaF3 cells: • Maintained in RPMI containing 10% FBS, 1% PenStrep, 1% NEAA, and 1% L-Glutamine, supplemented with 1 mg/mL G418 and 5% WEHI-CM (or recombinant murine IL-3). • Confluent cells are split 1:50 to 1:100 every 3-4 days. • MV-4-11 cells: • Maintained in Iscove's Modified Dulbecco's Medium containing 10% FBS. • Confluent cells are split 1:4 every 3-4 days. • SKNSH cells: RPMI containing 10% FBS. On day 1, cells are counted, then centrifuged in a conical tube for 5 minutes at 1000 rpm. The supernatant is removed and cells are re-suspended as follows: • BaF3: resuspend in growth media +1 mg/mL G418 (without WEHFIL-3) to 2×10^5 cells/mL. • MV-4-11: resuspend in growth media to 5×10^5 cells/mL. • SKNSH: resuspend in growth media to 2×10^4 cells/mL. The cells are plated (50 μL, 150 μL for SKNSH cells) in each well of a 96-well dish (Corning 3610) and incubated at 37° C. in 5% CO2 overnight, cells plated to a final concentration of cells as follows: • BaF3: 10,000 cells per well. • MV-4-11: 25,000 cells per well. • SKNSH: 3,000 cells per well. On day 2, compound at a maximum concentration of 5 mM is serially diluted 1:3 for a total of 8 point titration with DMSO as a control. A 1 μL aliquot of each dilution point is added to 249 μL growth media and 50 μL is added to a well containing cells, providing 10 μM compound for the maximum concentration point. The cells are incubated for 3 days at 37° C. in 5% CO2. For SKNSH cells, a 0.75 μL aliquot of appropriate dilution in DMSO is added to 150 μL of cells. On day 5, ATPlite 1 step Luminescence Assay System (Perkin Elmer #6016739) is brought to room temperature along with the cell cultures. ATPlite is added to each well as follows: • BaF3: 25 μL per well. • MV-4-11: 40 μL per well. • SKNSH: 20 μL per well. The cells are incubated at room temperature for 10 minutes, then luminescence is read on Safire reader. The measured luminescence correlates directly with cell number, such that the reading as a function of compound concentration is used to determine the IC50 value.
(§2) It is understood that the results of these assays may vary as assay conditions are varied. Inhibition levels determined under the conditions described herein represent a relative activity for the compounds tested under the specific conditions employed. The cell based assays are likely to show variability due to the complexity of the system and the sensitivity thereof to any changes in the assay conditions. […] Results for compounds that are tested and show substantially no inhibition below the highest tested concentration are represented as “-” in the tables below. In some instances, the compounds were not tested in all of the assays, or assay results were not valid, as indicated by NA in the tables below.

BCR-NTRK1 BaF3 cells = molecular target: T2, BCR-NTRK1 BaF3 cells (Homo sapiens, UniProt P04629); assay: BaF3 BCR-NTRK1 cell proliferation assay (ATPlite); type: cell-based; details: read-out: Inhibition of Cell Proliferation IC50, BCR/BaF3 TrkA
T2 construct: fused on or other part: P11274 (Breakpoint cluster region protein)
Method: as §1, §2

BCR-NTRK2 BaF3 cells = molecular target: T3, BCR-NTRK2 BaF3 cells (Homo sapiens, UniProt Q16620); assay: BaF3 BCR-NTRK2 cell proliferation assay (ATPlite); type: cell-based; details: read-out: Inhibition of Cell Proliferation IC50, BCR/BaF3 TrkB
T3 construct: fused on or other part: P11274 (Breakpoint cluster region protein)
Method: as §1, §2

CYP2C19 = CYP2C19 (Homo sapiens, UniProt P33261); assay: CYP2C19 inhibition (fluorescent substrate CEC); type: in vitro ADME; details: read-out: Cyp IC50 2C19
Method: (§3) CYP (Cytochrome P450) enzymes are the major drug metabolizing enzymes present in the liver. The inhibition of CYP enzyme activity (IC50) for each of CYP1A2, CYP2C19, CYP2C9, CYP2D6, CYP3A4(BFC) and CYP3A4(BQ) is determined for compounds, where inhibition of metabolism of a known substrate leads to a decrease in the fluorescence of the metabolized product. The fluorescence of the product is monitored as a function of compound concentration. Compounds are dissolved in DMSO to a concentration of 100 mM. These are diluted 1 μL into 82 μL of acetonitrile. An 11 μL aliquot of this solution is then added to 204 μL of cofactor mix (1.3% NADPH Regeneration system Solution A, 1.04% NADPH Regeneration system Solution B from BD Biosciences, 5% acetonitrile and 0.05% DMSO). These are then serially diluted 1:1 (160 μL to 160 μL co-factor mix) for a total of 10 points. A 10 μL aliquot of this final mixture is dispensed into 384 well assay plates and incubated for 10 minutes at 37° C. […] Assay plates are incubated at 37° C. (CYP1A2-15 min; CYP2C9-45 min; CYP2C19, 2D6 and 3A4-30 min) and read in a Tecan Safire 2 plate reader (CYP1A2, 2C19 and 3A4 409 ex/460 em; CYP2C9 and 2D6 409 ex/530 em). The signal versus compound concentration is used to determine the IC50. The enzymes and substrates for this assay are obtained from BD Biosciences.

CYP3A4(BFC) = CYP3A4(BFC) (Homo sapiens, UniProt P08684); assay: CYP3A4(BFC) inhibition; type: in vitro ADME; details: CYP3A4, substrate BFC; read-out: Cyp IC50 3A4(BFC)
Method: as §3

CYP2C19, sequence (P33261 whole entry): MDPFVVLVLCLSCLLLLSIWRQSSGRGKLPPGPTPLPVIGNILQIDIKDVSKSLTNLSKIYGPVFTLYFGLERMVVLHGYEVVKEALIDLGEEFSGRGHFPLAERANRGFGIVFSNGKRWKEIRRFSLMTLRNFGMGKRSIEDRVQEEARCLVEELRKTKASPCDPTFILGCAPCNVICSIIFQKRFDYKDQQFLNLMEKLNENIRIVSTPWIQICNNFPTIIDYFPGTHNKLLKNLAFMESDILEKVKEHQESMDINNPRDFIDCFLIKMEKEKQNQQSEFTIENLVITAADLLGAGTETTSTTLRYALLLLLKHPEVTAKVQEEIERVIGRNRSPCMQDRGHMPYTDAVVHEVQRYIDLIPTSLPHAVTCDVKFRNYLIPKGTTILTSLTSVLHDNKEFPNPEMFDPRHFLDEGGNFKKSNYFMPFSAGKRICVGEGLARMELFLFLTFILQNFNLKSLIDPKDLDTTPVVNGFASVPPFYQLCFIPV
T2 sequence (P04629 510-781): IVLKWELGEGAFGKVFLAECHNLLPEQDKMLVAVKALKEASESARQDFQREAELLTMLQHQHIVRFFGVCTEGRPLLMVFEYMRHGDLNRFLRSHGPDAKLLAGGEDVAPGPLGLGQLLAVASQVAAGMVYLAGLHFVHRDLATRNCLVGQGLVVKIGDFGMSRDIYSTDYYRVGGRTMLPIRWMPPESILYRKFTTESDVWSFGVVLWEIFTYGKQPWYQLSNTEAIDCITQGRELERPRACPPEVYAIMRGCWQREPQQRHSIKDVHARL
T3 sequence (Q16620 538-807): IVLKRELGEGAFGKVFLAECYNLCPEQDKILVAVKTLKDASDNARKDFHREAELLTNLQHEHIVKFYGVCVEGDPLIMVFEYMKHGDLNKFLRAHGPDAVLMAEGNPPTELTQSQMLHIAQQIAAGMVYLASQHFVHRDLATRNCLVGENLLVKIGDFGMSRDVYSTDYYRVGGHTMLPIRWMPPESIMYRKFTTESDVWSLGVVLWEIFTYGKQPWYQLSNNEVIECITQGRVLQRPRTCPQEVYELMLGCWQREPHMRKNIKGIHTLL
CYP3A4(BFC), sequence (P08684 whole entry): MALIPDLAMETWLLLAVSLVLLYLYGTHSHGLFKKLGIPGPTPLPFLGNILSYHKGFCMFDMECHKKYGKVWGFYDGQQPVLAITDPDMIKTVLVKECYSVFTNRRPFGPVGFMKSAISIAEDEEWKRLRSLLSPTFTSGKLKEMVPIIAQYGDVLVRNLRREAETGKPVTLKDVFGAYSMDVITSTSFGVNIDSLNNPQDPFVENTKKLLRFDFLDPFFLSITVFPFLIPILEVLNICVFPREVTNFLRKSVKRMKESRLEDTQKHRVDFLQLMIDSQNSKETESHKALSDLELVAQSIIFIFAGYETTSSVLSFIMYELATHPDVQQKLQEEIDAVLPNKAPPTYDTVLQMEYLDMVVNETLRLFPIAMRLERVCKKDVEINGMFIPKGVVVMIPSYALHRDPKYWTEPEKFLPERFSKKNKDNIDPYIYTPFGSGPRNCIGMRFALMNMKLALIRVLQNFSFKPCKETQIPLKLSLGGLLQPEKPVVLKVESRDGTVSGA

SMILES | IC50 (BCR-FMS BaF3 cells) | IC50 (BCR-NTRK1 BaF3 cells) | IC50 (BCR-NTRK2 BaF3 cells) | IC50 (CYP2C19) | IC50 (CYP3A4(BFC))
O=C(c1ccc(NC2CCC(F)(F)CC2)nc1Cl)c1c[nH]c2ncnc(NC3CC3)c12 [Compound P-4059, [2-chloro-6-[(4,4-difluorocyclohexyl)amino]-3-pyridyl]-[4-(cyclopropylamino)-7H-pyrrolo[2,3-d]pyrimidin-5-yl]methanone] | < 100 nM | < 1000 nM | < 100 nM | > 10 µM | > 10 µM
CCNc1ncnc2[nH]cc(C(=O)c3ccc(Nc4ccc(C5CC5)nc4)nc3F)c12 [Compound P-4060, [6-[(6-cyclopropyl-3-pyridyl)amino]-2-fluoro-3-pyridyl]-[4-(ethylamino)-7H-pyrrolo[2,3-d]pyrimidin-5-yl]methanone] | < 10 nM | < 10 nM | < 10 nM | > 10 µM | > 10 µM
O=C(c1ccc(NC2CCC(F)(F)CC2)nc1F)c1c[nH]c2ncnc(NCC(F)(F)F)c12 [Compound P-4061, [6-[(4,4-difluorocyclohexyl)amino]-2-fluoro-3-pyridyl]-[4-(2,2,2-trifluoroethylamino)-7H-pyrrolo[2,3-d]pyrimidin-5-yl]methanone] | < 100 nM | < 100 nM | < 10 nM | > 10 µM | > 10 µM
O=C(c1ccc(NC2CCC(F)(F)CC2)nc1F)c1c[nH]c2ncnc(NC3CC3)c12 [Compound P-4062, [4-(cyclopropylamino)-7H-pyrrolo[2,3-d]pyrimidin-5-yl]-[6-[(4,4-difluorocyclohexyl)amino]-2-fluoro-3-pyridyl]methanone] | < 100 nM | < 10 nM | < 10 nM | > 10 µM | > 10 µM
CNc1ncnc2[nH]cc(C(=O)c3ccc(NC4CCC(F)(F)CC4)nc3F)c12 [Compound P-4063, [6-[(4,4-difluorocyclohexyl)amino]-2-fluoro-3-pyridyl]-[4-(methylamino)-7H-pyrrolo[2,3-d]pyrimidin-5-yl]methanone] | < 100 nM | < 10 nM | < 100 nM | > 10 µM | > 10 µM
CCc1ccc(Nc2ccc(C(=O)c3c[nH]c4ncnc(NCC(C)(C)O)c34)c(F)n2)cn1 [Compound P-4064, [6-[(6-ethyl-3-pyridyl)amino]-2-fluoro-3-pyridyl]-[4-[(2-hydroxy-2-methyl-propyl)amino]-7H-pyrrolo[2,3-d]pyrimidin-5-yl]methanone] | < 100 nM | < 100 nM | < 10 nM | > 10 µM | > 10 µM
CCc1ccc(Nc2ccc(C(=O)c3c[nH]c4ncnc(N)c34)c(F)n2)cn1 [Compound P-4065, (4-amino-7H-pyrrolo[2,3-d]pyrimidin-5-yl)-[6-[(6-ethyl-3-pyridyl)amino]-2-fluoro-3-pyridyl]methanone] | < 100 nM | < 100 nM | < 10 nM | > 10 µM | > 10 µM
COc1ccc(Nc2ccc(C(=O)c3c[nH]c4ncnc(NC(C)C)c34)c(F)n2)cn1 [Compound P-4066, [2-fluoro-6-[(6-methoxy-3-pyridyl)amino]-3-pyridyl]-[4-(isopropylamino)-7H-pyrrolo[2,3-d]pyrimidin-5-yl]methanone] | < 10 nM | < 10 nM | < 10 nM | > 10 µM | > 10 µM
COc1ccc(Nc2ccc(C(=O)c3c[nH]c4ncnc(NCC5CC5)c34)c(F)n2)cn1 [Compound P-4067, [4-(cyclopropylmethylamino)-7H-pyrrolo[2,3-d]pyrimidin-5-yl]-[2-fluoro-6-[(6-methoxy-3-pyridyl)amino]-3-pyridyl]methanone] | < 10 nM | < 10 nM | < 10 nM | 5 to 10 µM | > 10 µM
CCCNc1ncnc2[nH]cc(C(=O)c3ccc(Nc4ccc(OC)nc4)nc3F)c12 [Compound P-4068, [2-fluoro-6-[(6-methoxy-3-pyridyl)amino]-3-pyridyl]-[4-(propylamino)-7H-pyrrolo[2,3-d]pyrimidin-5-yl]methanone] | < 10 nM | < 10 nM | < 10 nM | > 10 µM | > 10 µM
COc1ccc(Nc2ccc(C(=O)c3c[nH]c4ncnc(N5CCCCC5)c34)c(F)n2)cn1 [Compound P-4069, [2-fluoro-6-[(6-methoxy-3-pyridyl)amino]-3-pyridyl]-[4-(1-piperidyl)-7H-pyrrolo[2,3-d]pyrimidin-5-yl]methanone] | > 1000 nM | > 1000 nM | > 1000 nM | 5 to 10 µM | 5 to 10 µM
COc1ccc(Nc2ccc(C(=O)c3c[nH]c4ncnc(N5CCOCC5)c34)c(F)n2)cn1 [Compound P-4070, [2-fluoro-6-[(6-methoxy-3-pyridyl)amino]-3-pyridyl]-(4-morpholino-7H-pyrrolo[2,3-d]pyrimidin-5-yl)methanone] | > 1000 nM | > 1000 nM | > 1000 nM | > 10 µM | > 10 µM
COc1ccc(Nc2ccc(C(=O)c3c[nH]c4ncnc(NCc5ccc(C(F)(F)F)nc5)c34)c(F)n2)cn1 [Compound P-4071, [2-fluoro-6-[(6-methoxy-3-pyridyl)amino]-3-pyridyl]-[4-[[6-(trifluoromethyl)-3-pyridyl]methylamino]-7H-pyrrolo[2,3-d]pyrimidin-5-yl]methanone] | < 100 nM | < 100 nM | < 100 nM | > 10 µM | > 10 µM

From US8901118B2, “Compounds and methods for kinase modulation, and indications therefor” (Plexxikon Inc., priority 2010, dated 2014)
